ChEMBL document CHEMBL5325510, “Vincamine, from an antioxidant and a cerebral vasodilator to its anticancer potential” (Bioorg Med Chem, 2023)

Experiments:
KB = test: Cytotoxicity against human KB cells assessed as cell growth inhibition incubated for 48 hrs by MTT assay; format: functional, cell-based
A549 = test: Cytotoxicity against human A549 cells assessed as reduction in cell viability measured after 48 hrs by MTT assay; format: functional, cell-based; details: A549, 48 h
B16 = test: Cytotoxicity against mouse B16 cells assessed as reduction in cell viability measured after 96 hrs by microplate reader based MTT assay; format: functional
HEp-2 = test: Cytotoxicity against human HEp-2 cells assessed as reduction in cell growth; format: functional, cell-based

CC[C@]12CCCN3CCc4c(n(c5ccccc45)[C@@](O)(C(=O)OC)C1)[C@@H]32 [VINCAMINE]
IC50 (KB): 232 µM
IC50 (A549): 310 µM
IC50 (B16): 68.9 µM
IC50 (HEp-2): 274 µM
